# Experimental data from patent publication US9878991B2, “TRPV1 antagonists including dihydroxy substituent and uses thereof” (Purdue Pharma L.P., priority 2007, dated 2018).
# What was measured:
# [1] = system: TRPV1 receptor-mediated pain; test: Capsaicin-induced eye wipe test; format: in vivo; details: rat; for eye wipe value: pre-administration value 24
# Protocol: Each experiment uses rats weighing between 200-260 g at the start of the experiment. The rats are group-housed and have free access to food and water at all times, except prior to oral administration of a compound of formula I when food is removed for 16 hours before dosing. A control group acts as a comparison to rats treated with a compound of formula I. The control group is administered the carrier for the compound of formula I. The volume of carrier administered to the control group is the same as the volume of carrier and compound of formula I administered to the test group.
# To assess the effect of compounds of formula I on TRPV1 receptor-mediated pain, the capsaicin-induced eye wipe test is used (N. R. Gavva et al., “AMG 9810 [(E)-3-(4-t-Butylphenyl)-N-(2,3-dihydrobenzo[b][1,4]dioxin-6-yl)acrylamide], a Novel Vanilloid Receptor 1 (TRPV1) Antagonist with Antihyperalgesic Properties”, J. Pharmacol. Exp. Ther. 313:474-484 (2005)). The eye wipe test is a reliable high-throughput test of the effect of TRPV1 antagonists. Rats are given a single injection of 1, 3, 10 or 30 mg/kg of either a compound of formula I; 30 mg/kg of a control selected from Celebrex, indomethacin or naproxen; or carrier. At 1, 3 or 5 hours after drug administration, 3 μL of a 100 μM capsaicin solution (in 10% EtOH/PBS) is instilled in one eye of each animal with a pipette. The number of forelimb movements (touching or wiping of the capsaicin-treated eye) are counted during a 2 minute period following instillation of capsaicin into the eye.
# [2] = Plasma concentration after administration to an animal; format: in vivo
SMILES,eye wipe value ([1]; 1 hour after administration),decrease of eye wipes relative to pre-administration value ([1]; 3 hours after administration) [%],eye wipe value ([1]; 3 hours after administration),decrease of eye wipes relative to pre-administration value ([1]; 5 hours after administration) [%],eye wipe value ([1]; 5 hours after administration),maximum plasma concentration relative to the maximum for compound 200 [2] [times]
"O=C(Nc1ccc(C(F)(F)F)cc1)N1CCC(F)(c2ncc([C@H](O)CO)cc2Cl)CC1 [Compound N1, (S)-4-(3-chloro-5-(1,2-dihydroxyethyl)pyridin-2-yl)-4-fluoro-N-(4-(trifluoromethyl)phenyl)piperidine-1-carboxamide]",3,96,1,92,2,
CC(O)(CO)c1cnc(C2=CCN(C(=O)Nc3ccc(C(F)(F)F)cc3)CC2)c(Cl)c1 (stereo not shown) [Compound R6],,,,,,5.3
"O=C(Nc1ccc(C(F)(F)F)cc1)N1CC=C(c2ncc([C@H](O)CO)cc2Cl)CC1 [Compound Z1, (S)-3-Chloro-5-(1,2-dihydroxy-ethyl)-3′,6′-dihydro-2′H-[2,4′]bipyridinyl-1′-carboxylic acid (4-trifluoromethyl-phenyl)amide]",,,,,,2.5
